Legend:
[1] = molecular target: mTOR (human recombinant aa mTOR 1360-2549) (Homo sapiens (Human), UniProt P42345); experiment: mTOR enzymatic test by TR-FRET (phosphorylation of GFP-4EBP1); assay type: biochemical
Outline: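 After a 30 min room-temperature kinase reaction, EDTA (10 mM final) and Tb-labelled phospho-Thr46 antibody (2 nM final) were added and incubated 60 min. Energy transfer from Tb to phosphorylated GFP-4EBP1 was read at 340 nm excitation, emissions 490/520 nm. Values derive from the 520/490 fluorescence ratio.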

Akt-pS473 in U87MG cells = conditions: Homo sapiens, U-87 MG, read-out: U87 Akt-pS473 % Inhibition or IC50, nM (IC50), U87MG cells
U87MG tumour cells = experiment: Test of in vitro proliferation of U87MG tumour cells; assay type: cell-based; conditions: Homo sapiens, U-87 MG, 72 h, U87MG cells, 72 hours; read-out: U87 Cell Proliferation IC50
Protocol: Model 4: Test of in vitro Proliferation of U87MG Tumour Cells.
The cell growth is determined with the reagent CellTiter 96 AQueous One Solution Cell Proliferation Assay from Promega (Cat. No. G3581).

PI3Kα (p110α/p85α) = PI3Kα (p110α/p85α) (Homo sapiens (Human), UniProt P42336); experiment: PI3Kα enzymatic test by measuring the consumption of ATP; assay type: biochemical
Outline: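 ATP consumption read out by KinaseGlo luminescence after a 90 min reaction of 1.7 μg/ml PI3Kα (p110α/p85α) with 2 μM ATP and 50 μM PIP2, buffered at pH 7.5 (Tris, 10 mM MgCl2, 1 mM EGTA, 0.03% Chaps, 1 mM DTT). Threefold dilution series over ≥10 000-fold range yield IC50.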

Chain of mTOR (human recombinant aa mTOR 1360-2549) (P42345 1360-2549): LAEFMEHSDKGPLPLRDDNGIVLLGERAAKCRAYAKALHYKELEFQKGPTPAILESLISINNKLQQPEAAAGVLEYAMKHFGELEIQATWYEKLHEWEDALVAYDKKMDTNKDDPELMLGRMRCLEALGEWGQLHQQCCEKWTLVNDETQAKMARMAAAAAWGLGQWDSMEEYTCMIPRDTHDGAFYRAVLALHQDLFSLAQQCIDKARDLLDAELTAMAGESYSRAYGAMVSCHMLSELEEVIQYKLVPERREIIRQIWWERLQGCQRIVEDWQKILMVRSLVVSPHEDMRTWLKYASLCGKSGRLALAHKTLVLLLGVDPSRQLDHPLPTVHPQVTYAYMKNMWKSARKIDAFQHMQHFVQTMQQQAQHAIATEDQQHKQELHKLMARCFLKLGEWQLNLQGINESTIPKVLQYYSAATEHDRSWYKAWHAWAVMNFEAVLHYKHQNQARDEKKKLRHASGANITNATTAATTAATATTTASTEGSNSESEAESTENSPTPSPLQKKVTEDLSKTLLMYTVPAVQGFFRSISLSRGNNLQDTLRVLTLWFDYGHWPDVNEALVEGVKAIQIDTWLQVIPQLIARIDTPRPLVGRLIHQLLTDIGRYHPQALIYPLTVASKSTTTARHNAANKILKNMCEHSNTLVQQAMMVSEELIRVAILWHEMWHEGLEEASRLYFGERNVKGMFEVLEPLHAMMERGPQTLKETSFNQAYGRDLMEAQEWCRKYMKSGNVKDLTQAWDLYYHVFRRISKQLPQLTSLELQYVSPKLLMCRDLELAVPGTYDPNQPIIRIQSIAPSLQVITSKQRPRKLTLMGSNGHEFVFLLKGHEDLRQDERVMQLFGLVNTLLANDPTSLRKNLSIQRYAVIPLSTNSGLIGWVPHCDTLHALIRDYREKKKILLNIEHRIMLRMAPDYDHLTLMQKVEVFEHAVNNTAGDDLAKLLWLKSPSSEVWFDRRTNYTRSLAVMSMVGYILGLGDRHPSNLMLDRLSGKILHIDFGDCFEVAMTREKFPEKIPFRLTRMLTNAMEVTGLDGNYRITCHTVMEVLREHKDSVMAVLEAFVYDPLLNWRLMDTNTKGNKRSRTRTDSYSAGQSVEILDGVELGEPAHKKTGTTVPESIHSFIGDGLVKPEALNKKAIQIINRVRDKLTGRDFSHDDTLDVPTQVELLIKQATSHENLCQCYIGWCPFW
Chain of PI3Kα (p110α/p85α) (P42336 whole entry): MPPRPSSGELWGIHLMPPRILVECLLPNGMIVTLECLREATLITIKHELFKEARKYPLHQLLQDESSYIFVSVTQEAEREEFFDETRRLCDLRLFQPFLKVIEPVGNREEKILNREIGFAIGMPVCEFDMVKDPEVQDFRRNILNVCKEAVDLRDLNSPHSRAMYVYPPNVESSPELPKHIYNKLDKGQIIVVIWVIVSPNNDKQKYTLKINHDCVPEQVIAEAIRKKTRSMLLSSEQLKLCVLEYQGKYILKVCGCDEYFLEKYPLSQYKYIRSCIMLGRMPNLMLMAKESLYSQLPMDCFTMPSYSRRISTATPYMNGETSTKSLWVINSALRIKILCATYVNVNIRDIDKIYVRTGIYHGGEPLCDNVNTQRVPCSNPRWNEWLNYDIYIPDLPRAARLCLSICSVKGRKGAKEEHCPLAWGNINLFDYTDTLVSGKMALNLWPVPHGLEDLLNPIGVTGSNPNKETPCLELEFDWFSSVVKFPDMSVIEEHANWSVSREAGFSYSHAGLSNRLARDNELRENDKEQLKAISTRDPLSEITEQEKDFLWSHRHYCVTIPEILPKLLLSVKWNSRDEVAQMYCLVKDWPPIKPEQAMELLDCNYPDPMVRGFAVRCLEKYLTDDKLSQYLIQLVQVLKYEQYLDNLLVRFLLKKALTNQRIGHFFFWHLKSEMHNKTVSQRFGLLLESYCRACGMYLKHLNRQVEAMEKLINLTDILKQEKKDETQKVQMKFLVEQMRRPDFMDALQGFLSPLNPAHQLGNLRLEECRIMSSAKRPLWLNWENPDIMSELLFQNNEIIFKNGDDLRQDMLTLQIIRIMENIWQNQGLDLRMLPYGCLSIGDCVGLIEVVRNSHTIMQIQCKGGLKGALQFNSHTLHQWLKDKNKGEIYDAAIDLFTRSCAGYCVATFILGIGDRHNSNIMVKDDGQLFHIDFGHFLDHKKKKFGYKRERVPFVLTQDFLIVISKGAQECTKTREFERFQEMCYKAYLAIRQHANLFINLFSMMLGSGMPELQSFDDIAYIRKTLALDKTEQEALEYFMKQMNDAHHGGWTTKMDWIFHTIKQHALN
Chain of PI3Kα (p110α/p85α) (P27986 whole entry partner): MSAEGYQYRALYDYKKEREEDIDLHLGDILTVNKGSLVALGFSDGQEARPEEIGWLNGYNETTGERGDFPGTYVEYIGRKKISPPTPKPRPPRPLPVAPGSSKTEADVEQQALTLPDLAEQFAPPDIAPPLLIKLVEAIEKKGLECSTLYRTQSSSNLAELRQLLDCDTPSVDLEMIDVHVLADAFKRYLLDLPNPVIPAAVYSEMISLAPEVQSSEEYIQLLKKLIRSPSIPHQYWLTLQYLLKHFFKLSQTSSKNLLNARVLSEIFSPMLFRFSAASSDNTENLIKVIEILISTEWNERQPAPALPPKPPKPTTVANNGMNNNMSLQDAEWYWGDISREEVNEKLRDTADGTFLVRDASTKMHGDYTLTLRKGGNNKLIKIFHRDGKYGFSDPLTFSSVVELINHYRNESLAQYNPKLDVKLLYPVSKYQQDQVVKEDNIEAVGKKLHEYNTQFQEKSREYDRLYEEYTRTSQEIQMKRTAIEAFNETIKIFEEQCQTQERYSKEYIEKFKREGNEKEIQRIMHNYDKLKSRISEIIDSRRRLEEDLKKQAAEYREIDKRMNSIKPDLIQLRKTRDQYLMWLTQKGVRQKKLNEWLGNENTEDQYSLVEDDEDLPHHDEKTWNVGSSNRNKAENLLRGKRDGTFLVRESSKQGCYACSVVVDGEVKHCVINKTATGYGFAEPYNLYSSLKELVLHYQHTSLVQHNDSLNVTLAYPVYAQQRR

Row | SMILES | IC50 [1] | IC50 (Akt-pS473 in U87MG cells) | IC50 (U87MG tumour cells) | PI3Ka IC50 (PI3Kα (p110α/p85α))
1 | COc1ccc(NC(=O)Nc2ccc(-c3nc(N4CC5CCC(C4)O5)nc4c3C(=O)N(C3CCOCC3)CC(C)(C)O4)cc2)cn1 [Example 148, 1-{4-[8,8-Dimethyl-2-(8-oxa-3-azabicyclo[3.2.1]oct-3-yl)-5-oxo-6-(tetrahydropyran-4-yl)-5,6,7,8-tetrahydro-9-oxa-1,3,6-triazabenzocyclohepten-4-yl]phenyl}-3-(6-methoxypyridin-3-yl)urea] | 68 nM | 21 nM | 490 nM | >10000 nM
2 | CCN1CC(C)(C)Oc2nc(N3CCOC[C@@H]3C)nc(-c3ccc(NC(=O)NCC(F)(F)F)c(F)c3)c2C1=O [Example 149, 1-{4-[6-Ethyl-8,8-dimethyl-2-((S)-3-methylmorpholin-4-yl)-5-oxo-5,6,7,8-tetrahydro-9-oxa-1,3,6-triazabenzocyclohepten-4-yl]-2-fluorophenyl}-3-(2,2,2-trifluoroethyl)urea] | 113 nM | 154 nM | 854 nM | >10000 nM
3 | CCN1CC(C)(C)Oc2nc(N3CCOC[C@@H]3C)nc(-c3ccc(NC(=O)NC4CC4)c(F)c3)c2C1=O [Example 150, 1-Cyclopropyl-3-{4-[6-ethyl-8,8-dimethyl-2-((S)-3-methylmorpholin-4-yl)-5-oxo-5,6,7,8-tetrahydro-9-oxa-1,3,6-triazabenzocyclohepten-4-yl]-2-fluorophenyl}urea] | 40 nM | 73 nM | 201 nM | 5800 nM
4 | CCNC(=O)Nc1ccc(-c2nc(N3CCOC[C@@H]3CC)nc3c2C(=O)N(CC)CC(C)(C)O3)cc1F [Example 151, 1-Ethyl-3-{4-[6-ethyl-2-((S)-3-ethylmorpholin-4-yl)-8,8-dimethyl-5-oxo-5,6,7,8-tetrahydro-9-oxa-1,3,6-triazabenzocyclohepten-4-yl]-2-fluorophenyl}urea] | 116 nM | 82 nM | 531 nM | >10000 nM
5 | CCN1CC(C)(C)Oc2nc(N3CC4CCC(C3)O4)nc(-c3ccc(Nc4nnc(C)[nH]4)c(F)c3)c2C1=O [Example 152, 6-Ethyl-4-[3-fluoro-4-(5-methyl-4H-[1,2,4]triazol-3-ylamino)phenyl]-8,8-dimethyl-2-(8-oxa-3-azabicyclo[3.2.1]oct-3-yl)-7,8-dihydro-6H-9-oxa-1,3,6-triazabenzocyclohepten-5-one] | 348 nM | 257 nM | 2680 nM | >10000 nM
6 | CC1(C)CN(C2CCOCC2)C(=O)c2c(nc(N3CC4CCC(C3)O4)nc2-c2ccc(NC(=O)Nc3ccon3)c(F)c2)O1 [Example 153, 1-{4-[8,8-Dimethyl-2-(8-oxa-3-azabicyclo[3.2.1]oct-3-yl)-5-oxo-6-(tetrahydropyran-4-yl)-5,6,7,8-tetrahydro-9-oxa-1,3,6-triazabenzocyclohepten-4-yl]-2-fluorophenyl}-3-isoxazol-3-ylurea] | 31 nM | 116 nM | 346 nM | >10000 nM
7 | CCN1CC(C)(C)Oc2nc(N3CC4CCC(C3)O4)nc(-c3ccc(NC(=O)Nc4ccc(C(F)(F)F)cc4F)cc3)c2C1=O [Example 154, 1-{4-[6-Ethyl-8,8-dimethyl-2-(8-oxa-3-azabicyclo[3.2.1]oct-3-yl)-5-oxo-5,6,7,8-tetrahydro-9-oxa-1,3,6-triazabenzocyclohepten-4-yl]phenyl}-3-(2-fluoro-4-trifluoromethylphenyl)urea] | 182 nM | 54 nM | 97 nM | >10000 nM
8 | CCN1CC(C)(C)Oc2nc(N3CC4CCC(C3)O4)nc(-c3ccc(NC(=O)Nc4cc(OC)c(F)cc4F)cc3)c2C1=O [Example 155, 1-(2,4-Difluoro-5-methoxyphenyl)-3-{4-[6-ethyl-8,8-dimethyl-2-(8-oxa-3-azabicyclo[3.2.1]oct-3-yl)-5-oxo-5,6,7,8-tetrahydro-9-oxa-1,3,6-triazabenzocyclohepten-4-yl]phenyl}urea] | 79 nM | 59 nM | 142 nM | >10000 nM
9 | C[C@H]1COCCN1c1nc2c(c(-c3ccc(NC(=O)Nc4ccon4)c(F)c3)n1)C(=O)N(C1CCOCC1)CC(C)(C)O2 [Example 156, 1-{4-[8,8-Dimethyl-2-((S)-3-methylmorpholin-4-yl)-5-oxo-6-(tetrahydropyran-4-yl)-5,6,7,8-tetrahydro-9-oxa-1,3,6-triazabenzocyclohepten-4-yl]-2-fluorophenyl}-3-isoxazol-3-ylurea] | 27 nM | 92 nM | 395 nM | 1140 nM
10 | CC1(C)CN(C2CCOCC2)C(=O)c2c(nc(N3CC4CCC(C3)O4)nc2-c2ccc(NC(=O)Nc3ccon3)cc2)O1 [Example 157, 1-{4-[8,8-Dimethyl-2-(8-oxa-3-azabicyclo[3.2.1]oct-3-yl)-5-oxo-6-(tetrahydropyran-4-yl)-5,6,7,8-tetrahydro-9-oxa-1,3,6-triazabenzocyclohepten-4-yl]phenyl}-3-isoxazol-3-ylurea] | 27 nM | 67 nM | 260 nM | >10000 nM
11 | CCN1CC(C)(C)Oc2nc(N3CC4CCC(C3)O4)nc(-c3ccc(NC(=O)Nc4ccccn4)c(F)c3)c2C1=O [Example 158, 1-{4-[6-Ethyl-8,8-dimethyl-2-(8-oxa-3-azabicyclo[3.2.1]oct-3-yl)-5-oxo-5,6,7,8-tetrahydro-9-oxa-1,3,6-triazabenzocyclohepten-4-yl]-2-fluorophenyl}-3-pyridin-2-ylurea] | 64 nM | 1600 nM | 1700 nM | >10000 nM
12 | CCN1CC(C)(C)Oc2nc(N3CCOC[C@@H]3C)nc(-c3ccc(NC(=O)Nc4ccon4)c(F)c3)c2C1=O [Example 159, 1-{4-[6-Ethyl-8,8-dimethyl-2-((S)-3-methylmorpholin-4-yl)-5-oxo-5,6,7,8-tetrahydro-9-oxa-1,3,6-triazabenzocyclohepten-4-yl]-2-fluorophenyl}-3-isoxazol-3-ylurea] | 18 nM | 21 nM | 98 nM | 561 nM
13 | CCN1CC(C)(C)Oc2nc(N3CCOC[C@@H]3C)nc(-c3ccc(NC(=O)Nc4cnccn4)c(F)c3)c2C1=O [Example 160, 1-{4-[6-Ethyl-8,8-dimethyl-2-((S)-3-methylmorpholin-4-yl)-5-oxo-5,6,7,8-tetrahydro-9-oxa-1,3,6-triazabenzocyclohepten-4-yl]-2-fluorophenyl}-3-pyrazin-2-ylurea] | 41 nM | 114 nM | 744 nM | 4900 nM
14 | CCN1CC(C)(C)Oc2nc(N3CCOC[C@@H]3C)nc(-c3ccc(NC(=O)Nc4ccc(C)nc4)c(F)c3)c2C1=O [Example 161, 1-{4-[6-Ethyl-8,8-dimethyl-2-((S)-3-methylmorpholin-4-yl)-5-oxo-5,6,7,8-tetrahydro-9-oxa-1,3,6-triazabenzocyclohepten-4-yl]-2-fluorophenyl}-3-(6-methylpyridin-3-yl)urea] | 38 nM | 9 nM | 60 nM | 321 nM
15 | COCCN1CC(C)(C)Oc2nc(N3CC4CCC(C3)O4)nc(-c3ccc(NC(=O)Nc4ccc(F)cc4F)cc3)c2C1=O [Example 162, 1-(2,4-Difluorophenyl)-3-{4-[6-(2-methoxyethyl)-8,8-dimethyl-2-(8-oxa-3-azabicyclo[3.2.1]oct-3-yl)-5-oxo-5,6,7,8-tetrahydro-9-oxa-1,3,6-triazabenzocyclohepten-4-yl]phenyl}urea] | 147 nM | 110 nM | 486 nM | >10000 nM
16 | CCN1CC(C)(C)Oc2nc(N3CCOC[C@@H]3C)nc(-c3ccc(NC(=O)Nc4ccc(OC)cn4)c(F)c3)c2C1=O [Example 163, 1-{4-[6-Ethyl-8,8-dimethyl-2-((S)-3-methylmorpholin-4-yl)-5-oxo-5,6,7,8-tetrahydro-9-oxa-1,3,6-triazabenzocyclohepten-4-yl]-2-fluorophenyl}-3-(5-methoxypyridin-2-yl)urea] | 55 nM | 130 nM | 1020 nM | 3870 nM
17 | CCN1CC(C)(C)Oc2nc(N3CCOC[C@@H]3C)nc(-c3ccc(NC(=O)Nc4ccc(C)cn4)c(F)c3)c2C1=O [Example 164, 1-{4-[6-Ethyl-8,8-dimethyl-2-((S)-3-methylmorpholin-4-yl)-5-oxo-5,6,7,8-tetrahydro-9-oxa-1,3,6-triazabenzocyclohepten-4-yl]-2-fluorophenyl}-3-(5-methylpyridin-2-yl)urea] | 85 nM | 227 nM | 872 nM | 3800 nM
18 | CCN1CC(C)(C)Oc2nc(N3CC4CCC(C3)O4)nc(-c3ccc(NC(=O)Nc4ccon4)c(C)c3)c2C1=O [Example 165, 1-{4-[6-Ethyl-8,8-dimethyl-2-(8-oxa-3-azabicyclo[3.2.1]oct-3-yl)-5-oxo-5,6,7,8-tetrahydro-9-oxa-1,3,6-triazabenzocyclohepten-4-yl]-2-methylphenyl}-3-isoxazol-3-ylurea] | 180 nM | 1530 nM | 4200 nM | >10000 nM

— patent US9120812B2, “Pyrimidooxazocine derivatives as mTOR-inhibitors” (SANOFI, priority 2012, dated 2015)
